Test results: PMC13249053, “Mechanism of auranofin toxicity: Inhibition of tetrahydrobiopterin metabolism” (Toxicology and applied pharmacology, 2025)

System: BH4 formation in HaCaT cells
Test: BH4 formation from sepiapterin in intact HaCaT cells (HPLC)
Format: cell-based, human
Settings: MTX 1 μM, 2 h, then 200 μM sepiapterin 3 h; BH2 accumulates
Protocol: The growth medium was then removed and the cells incubated with growth medium containing 100 μM sepiapterin. […] BH2 and BH4 were then analyzed on a Jasco high-performance liquid chromatography system (Easton, MD) fitted with a Maxsil-10 C18 column (250 × 4 mm; Phenomenex, Torrance, CA). […] Cell viability following drug treatments was greater than 95 %.
Fig. 3. Effects of auranofin on BH2 and BH4 production in intact HaCaT cells treated with sepiapterin. HaCaT cells (~1 × 10^6 cells/well in 6 well culture plates) were incubated with control medium or medium containing increasing concentrations of auranofin for 2 h followed by 100 μM sepiapterin. After an additional 3 h, BH2 and BH4 were extracted from the cells and analyzed by HPLC with fluorescence detection. Left panel: Chromatograms showing BH2 and BH4 content of control cells and cells treated with Auranofin.
Fig. 6. […] Cells were treated with control medium or medium containing MTX (1 μM, 2 h), an inhibitor of DHFR, followed by 200 μM sepiapterin (upper panel) or BH2 (lower panel). After an additional 3 h incubation, cells were rinsed with PBS; BH2 and BH4 were then extracted and analyzed by HPLC as described in the Materials and Methods.

For `CN(Cc1cnc2nc(N)nc(N)c2n1)c1ccc(C(=O)N[C@@H](CCC(=O)O)C(=O)O)cc1` [methotrexate], the “effect on formation of BH4 from sepiapterin in HaCaT cells” value was “inhibit the formation of BH4 from sepiapterin”.
